Test results taken from US9603364B2 (Dow AgroSciences LLC, priority 2013, dated 2017).

Assays:
Assay in all cases: General post-emergent herbicidal activity, foliar application
Format in all cases: in vivo
Oryza sativa L. (rice) = settings: Oryza sativa, 336 h, scored after 14 days, read-out: % Visual Growth Reduction ORYSA; for plant injury at 70 g/ha: 70 g ai/ha; for plant injury at 140 g/ha: 140 g ai/ha; for plant injury at 280 g/ha: 280 g ai/ha
How it was run: (§1)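 Injury rated visually 14 days after treatment on a 0 (none) to 100% (complete kill) scale against untreated plants; greenhouse-grown, sub-irrigated to avoid wash-off. Foliar spray in aqueous acetone/DMSO with isopropanol, crop oil concentrate and Triton X-155, at a highest rate and 2-fold serial dilutions down to 1/16×.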

Zea mays L. (corn) = settings: 336 h, scored after 14 days, read-out: % Visual Growth Reduction ZEAMX; for plant injury at 70 g/ha: 70 g ai/ha; for plant injury at 140 g/ha: 140 g ai/ha; for plant injury at 280 g/ha: 280 g ai/ha
How it was run: as §1

[1] = tested on: Helianthus annuus L. (sunflower, common); settings: for pest or weed control at 70 g/ha: 70 g ai/ha; for pest or weed control at 140 g/ha: 140 g ai/ha; for pest or weed control at 280 g/ha: 280 g ai/ha; for GR80 Value HELAN: calculated by probit analysis, dose for 80% visual injury, may be extrapolated
How it was run: (§2)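 Compounds in acetone/DMSO 97:3 were diluted into aqueous spray mix with isopropanol, crop oil concentrate and Triton X-155, then serially diluted to 1/2×–1/16× of the top rate and sprayed on foliage. Plants were kept in greenhouse with sub-irrigation. Injury was scored visually (0–100%) at 14 days; GR20/GR50/GR80 came from probit analysis.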

[2] = tested on: Euphorbia heterophylla L. (poinsettia, wild); settings: for pest or weed control at 70 g/ha: 70 g ai/ha; for pest or weed control at 140 g/ha: 140 g ai/ha; for pest or weed control at 280 g/ha: 280 g ai/ha; for GR80 Value EPHHL: calculated by probit analysis, dose for 80% visual injury, may be extrapolated
How it was run: as §2

[3] = tested on: Amaranthus retroflexus L. (pigweed, redroot); settings: for pest or weed control at 70 g/ha: 70 g ai/ha; for pest or weed control at 140 g/ha: 140 g ai/ha; for pest or weed control at 280 g/ha: 280 g ai/ha; for GR80 Value AMARE: calculated by probit analysis, dose for 80% visual injury, may be extrapolated
How it was run: as §2

[4] = tested on: Chenopodium album L. (lambsquarters, common); settings: for pest or weed control at 70 g/ha: 70 g ai/ha; for pest or weed control at 140 g/ha: 140 g ai/ha; for pest or weed control at 280 g/ha: 280 g ai/ha; for GR80 Value CHEAL: calculated by probit analysis, dose for 80% visual injury, may be extrapolated
How it was run: as §2

[5] = tested on: Viola tricolor L. (pansy); settings: for pest or weed control at 70 g/ha: 70 g ai/ha; for pest or weed control at 140 g/ha: 140 g ai/ha; for pest or weed control at 280 g/ha: 280 g ai/ha; for GR80 Value VIOTR: calculated by probit analysis, dose for 80% visual injury, may be extrapolated
How it was run: as §2

[6] = tested on: Echinochloa crus-galli (L.) Beauv. (barnyardgrass); settings: for pest or weed control at 70 g/ha: 70 g ai/ha; for pest or weed control at 140 g/ha: 140 g ai/ha; for pest or weed control at 280 g/ha: 280 g ai/ha; for GR80 Value ECHCG: calculated by probit analysis, dose for 80% visual injury, may be extrapolated
How it was run: as §2

[7] = Helianthus annuus, 336 h, foliar post-emergent, scored after 14 days, read-out: % Visual Growth Reduction HELAN
[8] = Euphorbia heterophylla, 336 h, foliar post-emergent, scored after 14 days, read-out: % Visual Growth Reduction EPHHL
[9] = Amaranthus retroflexus, 336 h, foliar post-emergent, scored after 14 days, read-out: % Visual Growth Reduction AMARE
[10] = Chenopodium album, 336 h, foliar post-emergent, scored after 14 days, read-out: % Visual Growth Reduction CHEAL
[11] = Viola tricolor, 336 h, foliar post-emergent, scored after 14 days, read-out: % Visual Growth Reduction VIOTR
[12] = Echinochloa crus-galli, 336 h, foliar post-emergent, scored after 14 days, read-out: % Visual Growth Reduction ECHCG

Row | SMILES | plant injury at 140 g/ha (Oryza sativa L. (rice)) [%] | plant injury at 280 g/ha (Oryza sativa L. (rice)) [%] | plant injury at 140 g/ha (Zea mays L. (corn)) [%] | plant injury at 280 g/ha (Zea mays L. (corn)) [%] | pest or weed control at 140 g/ha [1, 7] [%] | pest or weed control at 280 g/ha [1, 7] [%] | GR80 Value HELAN [1] [g ai/ha] | pest or weed control at 140 g/ha [2, 8] [%] | pest or weed control at 280 g/ha [2, 8] [%] | GR80 Value EPHHL [2] [g ai/ha] | pest or weed control at 140 g/ha [3, 9] [%] | pest or weed control at 280 g/ha [3, 9] [%] | GR80 Value AMARE [3] [g ai/ha] | pest or weed control at 140 g/ha [4, 10] [%] | pest or weed control at 280 g/ha [4, 10] [%] | GR80 Value CHEAL [4] [g ai/ha] | pest or weed control at 280 g/ha [5, 11] [%] | GR80 Value VIOTR [5] [g ai/ha] | pest or weed control at 280 g/ha [6, 12] [%] | GR80 Value ECHCG [6] [g ai/ha] | further results
1 | COC(=O)c1nc(CCF)c(F)c(N)c1Cl [Compound F29, Methyl 4-amino-3-chloro-5-fluoro-6-(2-fluoroethyl)picolinate] | 0 | 0 | 0 | 0 | 90 | 90 | 60 | 100 | 100 | 53.9 | 100 | 100 | 55.1 | 90 | 90 | <17.5 | 90 | 203 | 60 | 432 | plant injury at 70 g/ha (Oryza sativa L. (rice)): 0%; plant injury at 70 g/ha (Zea mays L. (corn)): 0%; pest or weed control at 70 g/ha [1, 7]: 80%; pest or weed control at 70 g/ha [2, 8]: 100%; pest or weed control at 70 g/ha [3, 9]: 90%; pest or weed control at 70 g/ha [4, 10]: 90%; pest or weed control at 70 g/ha [5, 11]: 10%; pest or weed control at 140 g/ha [5, 11]: 70%; pest or weed control at 70 g/ha [6, 12]: 0%; pest or weed control at 140 g/ha [6, 12]: 10%
2 | CC(F)c1nc(C(=O)O)c(Cl)c(N)c1F (stereo not shown) [Compound F30, 4-amino-3-chloro-5-fluoro-6-(1-fluoroethyl)picolinic acid] | 0 | 0 | 100 | 100 | 90 | 90 | 59.3 | 100 | 100 | 84.9 | 100 | 100 | 40.6 | 95 | 100 | <17.5 | 50 | >280 | 80 | 239 | plant injury at 70 g/ha (Oryza sativa L. (rice)): 0%; plant injury at 70 g/ha (Zea mays L. (corn)): 100%; pest or weed control at 70 g/ha [1, 7]: 80%; pest or weed control at 70 g/ha [2, 8]: 70%; pest or weed control at 70 g/ha [3, 9]: 100%; pest or weed control at 70 g/ha [4, 10]: 95%; pest or weed control at 70 g/ha [5, 11]: 10%; pest or weed control at 140 g/ha [5, 11]: 25%; pest or weed control at 70 g/ha [6, 12]: 0%; pest or weed control at 140 g/ha [6, 12]: 65%
3 | COC(=O)c1nc(CCF)cc(N)c1Cl [Compound F31, methyl 4-amino-3-chloro-6-(2-fluoroethyl)picolinate] |  |  |  |  |  |  | 42.4 |  |  | <17.5 |  |  | <17.5 |  |  | 6.93 |  | 74.4 |  | >180 | plant injury at 180 g/ha (Oryza sativa L. (rice); 180 g ai/ha): 0%; plant injury at 180 g/ha (Zea mays L. (corn); 180 g ai/ha): 0%; pest or weed control at 180 g/ha ([1]; Helianthus annuus, 336 h, 180 g ai/ha, foliar post-emergent, scored after 14 days, read-out: % Visual Growth Reduction HELAN): 90%; pest or weed control at 180 g/ha ([2]; Euphorbia heterophylla, 336 h, 180 g ai/ha, foliar post-emergent, scored after 14 days, read-out: % Visual Growth Reduction EPHHL): 45%; pest or weed control at 180 g/ha ([3]; Amaranthus retroflexus, 336 h, 180 g ai/ha, foliar post-emergent, scored after 14 days, read-out: % Visual Growth Reduction AMARE): 15%; pest or weed control at 180 g/ha ([4]; Chenopodium album, 336 h, 180 g ai/ha, foliar post-emergent, scored after 14 days, read-out: % Visual Growth Reduction CHEAL): 100%; pest or weed control at 180 g/ha ([5]; Viola tricolor, 336 h, 180 g ai/ha, foliar post-emergent, scored after 14 days, read-out: % Visual Growth Reduction VIOTR): 100%; pest or weed control at 180 g/ha ([6]; Echinochloa crus-galli, 336 h, 180 g ai/ha, foliar post-emergent, scored after 14 days, read-out: % Visual Growth Reduction ECHCG): 0%
4 | Nc1c(F)c(C(F)F)nc(C(=O)O)c1Cl [Compound F32, 4-Amino-3-chloro-6-(difluoromethyl)-5-fluoropicolinic acid] | 0 | 5 | 0 | 10 | 100 | 100 | 40.8 | 30 | 50 | >280 | 55 | 85 | 251 | 90 | 100 | 26.9 | 10 | >280 | 60 | 433 | pest or weed control at 140 g/ha [5, 11]: 5%; pest or weed control at 140 g/ha [6, 12]: 55%
5 | COC(=O)c1nc(C(Br)CBr)cc(N)c1Cl (stereo not shown) [Compound F34, methyl 4-amino-3-chloro-6-(1,2-dibromoethyl)picolinate] |  |  |  |  |  |  |  |  |  |  |  |  |  |  |  |  |  |  |  |  | plant injury at 264 g/ha (Oryza sativa L. (rice); 264 g ai/ha): 0%; plant injury at 264 g/ha (Zea mays L. (corn); 264 g ai/ha): 0%; pest or weed control at 264 g/ha ([1]; Helianthus annuus, 336 h, 264 g ai/ha, foliar post-emergent, scored after 14 days, read-out: % Visual Growth Reduction HELAN): 80%; pest or weed control at 264 g/ha ([2]; Euphorbia heterophylla, 336 h, 264 g ai/ha, foliar post-emergent, scored after 14 days, read-out: % Visual Growth Reduction EPHHL): 10%; pest or weed control at 264 g/ha ([3]; Amaranthus retroflexus, 336 h, 264 g ai/ha, foliar post-emergent, scored after 14 days, read-out: % Visual Growth Reduction AMARE): 0%; pest or weed control at 264 g/ha ([4]; Chenopodium album, 336 h, 264 g ai/ha, foliar post-emergent, scored after 14 days, read-out: % Visual Growth Reduction CHEAL): 60%; pest or weed control at 264 g/ha ([5]; Viola tricolor, 336 h, 264 g ai/ha, foliar post-emergent, scored after 14 days, read-out: % Visual Growth Reduction VIOTR): 0%; pest or weed control at 264 g/ha ([6]; Echinochloa crus-galli, 336 h, 264 g ai/ha, foliar post-emergent, scored after 14 days, read-out: % Visual Growth Reduction ECHCG): 0%
6 | COC(=O)c1nc(CCl)cc(N)c1Cl [Compound F35, methyl 4-amino-3-chloro-6-(chloromethyl)picolinate] |  | 0 |  | 0 |  | 0 |  |  | 0 |  |  | 0 |  |  | 0 |  | 0 |  | 0 |  | 
